# Laboratory results reported in patent US7179921B2, “Indoline and tetrahydro-quinolines as prodrugs for tumour treatment” (School of Pharmacy, University of London, priority 2001, dated 2007).
# Marks after values point to notes of the source that are not given here.
# System: Chinese Hamster Ovary (CHO) cell
# Experiment: Cell culture based cytotoxicity measurement (MTT) with and without rat liver microsomal activation
# Settings: for IC50: Cricetulus griseus, CHO, cells incubated 24 hours, MTT, mean±sd, three experiments
# Method: Test compound activation by CYP enzymes was carried out using NADPH supplemented rat liver microsomes. Incubation mixtures comprised microsomal protein (1 mg/ml), reduced-nicotinamide adenine dinucleotide phosphate (NADPH,10 mM) and phosphate buffer (pH7.4, 100 mM). Test compound (0.01–100 μM final concentration) in DMSO (20 μl ) was added to the microsomal incubation mixtures (0.5 ml) and incubated for 60 min at 37C. Control incubates contained test compound and microsomal incubation mixture terminated at 0 time. All incubations were terminated by addition of an equal volume of ice-cold acetonitrile and microfuged for 3 min. Aliquots of the supernatant were added to cells in culture.
# Chinese Hamster Ovary (CHO) cell were grown in MEM supplemented with 10% dialysed FBS and G418 (400 μg/ml). All cells were seeded at an initial density of 1000 cells/well in 96-well-plates, incubation at 37° C. for 24 hours. Aliquots (0.1 ml) of the test compound/microsomal/acetonitrile supernatnant was then added to the CHO cells. Cells were then incubated for 24 hours at 37° C., 5% CO2. After this time period MTT (50 μl; 2 mg/ml stock solution) was added to each well and cells were incubated for a further 4 hours. During this time period MTT, a hydrogen acceptor tetrazolium salt, is reduced to formazan dye by mitochondrial dehydrogenase of viable cells. The media was aspirated from cells and DMSO (100 μl/well) added to solubilise the is coloured formazan dye. Absorbance of the formazan dye in the 96-well-plates was then determined at 550 nm. The effect of microsomal activation by the test compound on the arrest of CHO cell growth could be determined by comparing the IC50 (concentration that inhibited cell growth by 50%) with and without microsomal incubation.
# Effect of compound 3.5 and its metabolism (activation) product on the survival of Chinese hamster ovary cells in culture. Cells were incubated for 24 hours with supernatants from reaction mixtures of compound 3.5 with NADPH fortified rat liver microsomes. […] Values are expressed as the mean±sd for three experiments. […]
compound,measurement,setting,value
"COc1ccc2[nH]c(C(=O)N3CC(CCl)c4ccccc43)cc2c1 (stereo not drawn) [compound 3.5, 3-(Chloromethyl)-1--[(5-methoxyindol-2-yl)carbonyl]indoline]","AF = activity factor, ratio of IC50 cytotoxicity values obtained for ± compound activation","CHO cells, IC50 −activation / IC50 +activation",42.4*
same,IC50,control incubate terminated at 0 time (no microsomal activation),5510 ± 230 nM
same,IC50,supernatant after 60 min incubation with NADPH supplemented rat liver microsomes,130 ± 30 nM
